Patent US6472348B1, “Pyridone derivatives and herbicides” (Kumiai Chemical Industry Co., Ltd., priority 1996, dated 2002)

System: barnyardgrass (Ec)
Test: Test Example 1: herbicidal effects by paddy field soil treatment;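 note: grade of growth control; 5 = at least 90%; 4 = 70 to 90%; 3 = 50 to 70%; 2 = 30 to 50%; 1 = 10 to 30%; 0 = under 10%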
Assay type: in vivo
Details: 100 g of the active ingredient per 10 ares, 21st day after the application, index 0-5 of Table 47
Description: (§1) (Test on Herbicidal Effects by Paddy Field Soil Treatment)
(§2) In a plastic pot (surface area: 100 cm^2) filled with paddy field soil, barnyardgrass (Ec), monochoria (Mo) and bulrush (Sc) were sown after puddling and leveling, and flooded to a water depth of 3 cm. […] The dose was 100 g of the active ingredient per 10 ares. The plants were then cultured in a green house, and the evaluation of the herbicidal effects was conducted on the 21st day after the application in accordance with the standards as identified in Table 47.

Row | Compound | Herbicidal effects Ec
1 | CC#CCOc1cc(-c2ccc(C(F)(F)F)n(C)c2=O)c(F)cc1Cl [1-175] | 5
2 | CCS(=O)(=O)N(C)c1cc(-c2ccc(C(F)(F)F)n(C)c2=O)c(F)cc1Cl [1-140] | 5

System: bulrush (Sc)
Test: as above
Assay type: in vivo
Details: 100 g of the active ingredient per 10 ares, 21st day after the application, index 0-5 of Table 47
Description: as §1, §2

Row | Compound | Herbicidal effects Sc
3 | CC#CCOc1cc(-c2ccc(C(F)(F)F)n(C)c2=O)c(F)cc1Cl [1-175] | 5
4 | CCS(=O)(=O)N(C)c1cc(-c2ccc(C(F)(F)F)n(C)c2=O)c(F)cc1Cl [1-140] | 5

System: monochoria (Mo)
Test: as above
Assay type: in vivo
Details: 100 g of the active ingredient per 10 ares, 21st day after the application, index 0-5 of Table 47
Description: as §1, §2

Row | Compound | Herbicidal effects Mo
5 | CC#CCOc1cc(-c2ccc(C(F)(F)F)n(C)c2=O)c(F)cc1Cl [1-175] | 5
6 | CCS(=O)(=O)N(C)c1cc(-c2ccc(C(F)(F)F)n(C)c2=O)c(F)cc1Cl [1-140] | 5

System: Digitaria ciliaris (Di)
Test: Test Example 2: herbicidal effects by upland field soil treatment;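 note: grade of growth control; 5 = at least 90%; 4 = 70 to 90%; 3 = 50 to 70%; 2 = 30 to 50%; 1 = 10 to 30%; 0 = under 10%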
Assay type: in vivo
Details: 100 g of the active ingredient per 10 ares, 21st day after the application, index 0-5 of Table 47
From the text: (§3) (Test on Herbicidal Effects by Upland Field Soil Treatment)

Row | Compound | Herbicidal effects Di
7 | CCS(=O)(=O)N(C)c1cc(-c2ccc(C(F)(F)F)n(C)c2=O)c(F)cc1Cl [1-140] | 5

Same assay, conditions: 100 g of the active ingredient per 10 ares, evaluated on the 21st day after application

Row | Compound | Herbicidal effects Di
8 | CC#CCOc1cc(-c2ccc(C(F)(F)F)n(C)c2=O)c(F)cc1Cl [1-175] | 5

System: barnyardgrass (Ec)
Test: as above
Assay type: in vivo
Details: 100 g of the active ingredient per 10 ares, 21st day after the application, index 0-5 of Table 47
From the text: as §3

Row | Compound | Herbicidal effects Ec
9 | CCS(=O)(=O)N(C)c1cc(-c2ccc(C(F)(F)F)n(C)c2=O)c(F)cc1Cl [1-140] | 5

Same assay, conditions: 100 g of the active ingredient per 10 ares, evaluated on the 21st day after application

Row | Compound | Herbicidal effects Ec
10 | CC#CCOc1cc(-c2ccc(C(F)(F)F)n(C)c2=O)c(F)cc1Cl [1-175] | 5

System: common lambsquarters (Ch)
Test: as above
Assay type: in vivo
Details: 100 g of the active ingredient per 10 ares, 21st day after the application, index 0-5 of Table 47
From the text: as §3

Row | Compound | Herbicidal effects Ch
11 | CCS(=O)(=O)N(C)c1cc(-c2ccc(C(F)(F)F)n(C)c2=O)c(F)cc1Cl [1-140] | 5

Same assay, conditions: 100 g of the active ingredient per 10 ares, evaluated on the 21st day after application

Row | Compound | Herbicidal effects Ch
12 | CC#CCOc1cc(-c2ccc(C(F)(F)F)n(C)c2=O)c(F)cc1Cl [1-175] | 5

System: pale smartweed (Po)
Test: as above
Assay type: in vivo
Details: 100 g of the active ingredient per 10 ares, 21st day after the application, index 0-5 of Table 47
From the text: as §3

Row | Compound | Herbicidal effects Po
13 | CCS(=O)(=O)N(C)c1cc(-c2ccc(C(F)(F)F)n(C)c2=O)c(F)cc1Cl [1-140] | 5

Same assay, conditions: 100 g of the active ingredient per 10 ares, evaluated on the 21st day after application

Row | Compound | Herbicidal effects Po
14 | CC#CCOc1cc(-c2ccc(C(F)(F)F)n(C)c2=O)c(F)cc1Cl [1-175] | 5

System: rice flatsedge (Ci)
Test: as above
Assay type: in vivo
Details: 100 g of the active ingredient per 10 ares, 21st day after the application, index 0-5 of Table 47
From the text: as §3

Row | Compound | Herbicidal effects Ci
15 | CCS(=O)(=O)N(C)c1cc(-c2ccc(C(F)(F)F)n(C)c2=O)c(F)cc1Cl [1-140] | 5

Same assay, conditions: 100 g of the active ingredient per 10 ares, evaluated on the 21st day after application

Row | Compound | Herbicidal effects Ci
16 | CC#CCOc1cc(-c2ccc(C(F)(F)F)n(C)c2=O)c(F)cc1Cl [1-175] | 5

System: slender amaranth (Am)
Test: as above
Assay type: in vivo
Details: 100 g of the active ingredient per 10 ares, 21st day after the application, index 0-5 of Table 47
From the text: as §3

Row | Compound | Herbicidal effects Am
17 | CCS(=O)(=O)N(C)c1cc(-c2ccc(C(F)(F)F)n(C)c2=O)c(F)cc1Cl [1-140] | 5

Same assay, conditions: 100 g of the active ingredient per 10 ares, evaluated on the 21st day after application

Row | Compound | Herbicidal effects Am
18 | CC#CCOc1cc(-c2ccc(C(F)(F)F)n(C)c2=O)c(F)cc1Cl [1-175] | 5

System: Diaitaria ciliaris (Di)
Test: Test Example 3: herbicidal effects by upland field foliage treatment
Assay type: in vivo
Set-up: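 grade of growth control; 5 = at least 90%; 4 = 70 to 90%; 3 = 50 to 70%; 2 = 30 to 50%; 1 = 10 to 30%; 0 = under 10%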
Details: 100 g of the active ingredient per 10 ares, evaluated on the 14th day after treatment
Description: (§4) (Test on Herbicidal Effects by Upland Field Foliage Treatment)
(§5) In a plastic pot (surface area: 120 cm^2) filled with sand, barnyardgrass (Ec), Diaitaria ciliaris (Di), pale smartweed (Po), slender amaranth (Am), common lambsquarters (Ch) and rice flatsedge (Ci) were sown and covered with soil and were cultured in a green house for 2 weeks. […] The plants were then cultured in the green house, and the evaluation of the herbicidal effects was conducted on the 14th day after the treatment in accordance with the standards as identified in Table 47. Symbol—represents “not tested”.

Row | Compound | Herbicidal effects Di
19 | CC#CCOc1cc(-c2ccc(C(F)(F)F)n(C)c2=O)c(F)cc1Cl [1-175] | 5
20 | CCS(=O)(=O)N(C)c1cc(-c2ccc(C(F)(F)F)n(C)c2=O)c(F)cc1Cl [1-140] | 5

System: barnyardgrass (Ec)
Test: as above
Assay type: in vivo
Set-up: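 grade of growth control; 5 = at least 90%; 4 = 70 to 90%; 3 = 50 to 70%; 2 = 30 to 50%; 1 = 10 to 30%; 0 = under 10%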
Details: 100 g of the active ingredient per 10 ares, evaluated on the 14th day after treatment
Description: as §4, §5

Row | Compound | Herbicidal effects Ec
21 | CC#CCOc1cc(-c2ccc(C(F)(F)F)n(C)c2=O)c(F)cc1Cl [1-175] | 5
22 | CCS(=O)(=O)N(C)c1cc(-c2ccc(C(F)(F)F)n(C)c2=O)c(F)cc1Cl [1-140] | 4

System: common lambsquarters (Ch)
Test: as above
Assay type: in vivo
Set-up: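 grade of growth control; 5 = at least 90%; 4 = 70 to 90%; 3 = 50 to 70%; 2 = 30 to 50%; 1 = 10 to 30%; 0 = under 10%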
Details: 100 g of the active ingredient per 10 ares, evaluated on the 14th day after treatment
Description: as §4, §5

Row | Compound | Herbicidal effects Ch
23 | CC#CCOc1cc(-c2ccc(C(F)(F)F)n(C)c2=O)c(F)cc1Cl [1-175] | 5
24 | CCS(=O)(=O)N(C)c1cc(-c2ccc(C(F)(F)F)n(C)c2=O)c(F)cc1Cl [1-140] | 5

System: pale smartweed (Po)
Test: as above
Assay type: in vivo
Set-up: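 grade of growth control; 5 = at least 90%; 4 = 70 to 90%; 3 = 50 to 70%; 2 = 30 to 50%; 1 = 10 to 30%; 0 = under 10%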
Details: 100 g of the active ingredient per 10 ares, evaluated on the 14th day after treatment
Description: as §4, §5

Row | Compound | Herbicidal effects Po
25 | CC#CCOc1cc(-c2ccc(C(F)(F)F)n(C)c2=O)c(F)cc1Cl [1-175] | 5
26 | CCS(=O)(=O)N(C)c1cc(-c2ccc(C(F)(F)F)n(C)c2=O)c(F)cc1Cl [1-140] | 5

System: rice flatsedge (Ci)
Test: as above
Assay type: in vivo
Set-up: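 grade of growth control; 5 = at least 90%; 4 = 70 to 90%; 3 = 50 to 70%; 2 = 30 to 50%; 1 = 10 to 30%; 0 = under 10%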
Details: 100 g of the active ingredient per 10 ares, evaluated on the 14th day after treatment
Description: as §4, §5

Row | Compound | Herbicidal effects Ci
27 | CC#CCOc1cc(-c2ccc(C(F)(F)F)n(C)c2=O)c(F)cc1Cl [1-175] | 5
28 | CCS(=O)(=O)N(C)c1cc(-c2ccc(C(F)(F)F)n(C)c2=O)c(F)cc1Cl [1-140] | 5

System: slender amaranth (Am)
Test: as above
Assay type: in vivo
Set-up: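 grade of growth control; 5 = at least 90%; 4 = 70 to 90%; 3 = 50 to 70%; 2 = 30 to 50%; 1 = 10 to 30%; 0 = under 10%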
Details: 100 g of the active ingredient per 10 ares, evaluated on the 14th day after treatment
Description: as §4, §5

Row | Compound | Herbicidal effects Am
29 | CC#CCOc1cc(-c2ccc(C(F)(F)F)n(C)c2=O)c(F)cc1Cl [1-175] | 5
30 | CCS(=O)(=O)N(C)c1cc(-c2ccc(C(F)(F)F)n(C)c2=O)c(F)cc1Cl [1-140] | 5
